Tested on: Eimeria tenella
Assay: Protective immunity against Eimeria tenella challenge after in ovo treatment and live coccidiosis vaccine
Format: in vivo, Broiler chicks
Set-up: key to Mean Cecal Score: cecal lesion score per Johnson & Reid (1970); Mean Gain: unit not given here
Details: challenged at 28 days
Description: A laboratory strain of Eimeria tenella was used as live coccidiosis vaccine (1000 oocysts per bird), and was given by individual oral gavage to day-old chicks. At 28 days of age, each bird was challenged by inoculation of virulent cecal coccidia (a field isolate of E. tenella with a challenge dose of 100,000 oocysts per bird) or kept as unchallenged controls. Six days post-challenge, birds were euthanized for necropsy and lesion score (see, e.g., Johnson & Reid, 1970, Exper. Parasitol. 28:30-36). Weight gains were calculated. […] Partial protection is not uncommon with coccidiosis vaccines administered in this way in short term challenge experiments. […]

[1] = E10 (10 IU) in ovo, Table 2 second set
[2] = E10 (10 IU) in ovo, Table 2 third set
[3] = E20 (20 IU) in ovo, Table 2 second set
[4] = E20 (20 IU) in ovo, Table 2 third set
[5] = E30 (30 IU) in ovo, Table 2 second set
[6] = E30 (30 IU) in ovo, Table 2 third set

vitamin E
Mean Cecal Score [1]: 1.53 | Mean Gain [1]: 361 | Mean Cecal Score [2]: 1.46 | Mean Gain [2]: 438 | Mean Cecal Score [3]: 1.73 | Mean Gain [3]: 357 | Mean Cecal Score [4]: 1.21 | Mean Gain [4]: 322 | Mean Cecal Score [5]: 1.55 | Mean Gain [5]: 388 | Mean Cecal Score [6]: 0.5 | Mean Gain [6]: 454
